Test results published in patent US20250332096A1, “BEVERAGE FORMULATION AND METHOD OF PROMOTING CELLULAR HYDRATION BY ENHANCING INTRACELLULAR PERMEATION” (Eastpond Laboratories Limited, priority 2024, published 2025).

How the values were obtained:
human aquaporin 1 (AQP1) = target: T1, human aquaporin 1 (AQP1) (Homo sapiens, UniProt P29972); experiment: Xenopus oocyte swelling assay, osmotic water permeability; assay type: cell-based; details: 0.05% in water
T1 construct: host or cells: Xenopus laevis oocytes (mRNA injection)
T1 sequence (P29972 1-269): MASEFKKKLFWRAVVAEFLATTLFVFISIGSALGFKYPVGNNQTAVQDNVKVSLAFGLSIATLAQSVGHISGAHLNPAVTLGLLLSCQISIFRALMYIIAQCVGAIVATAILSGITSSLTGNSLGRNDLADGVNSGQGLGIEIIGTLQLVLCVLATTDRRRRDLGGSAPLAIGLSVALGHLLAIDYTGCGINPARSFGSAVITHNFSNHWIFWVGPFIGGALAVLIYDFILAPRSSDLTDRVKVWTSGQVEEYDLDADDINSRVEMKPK
Experimental: They were then kept on ice for another 15 min before ovarectomy was performed. Ovaries were incubated in collagenase (Worthington Type II, 10 mg/ml) in calcium free Barth's solution (CFBS, NaCl 88 mM, KCl 1 mM, MgSO4 0.8 mM, TRIS-HCl 5 mM, NaHCO3 2.4 mM). Following defolliculation, oocytes were rinsed in normal Barth's solution (MBS, NaCl 88 mM, KCl 1 mM, CaCl2 0.4 mM, Ca(NO3)2 0.33 mM, MgSO4 0.8 mM, TRIS-HCl 5 mM, NaHCO3 2.4 mM) before they were transferred to 96-well plates. For nuclear injection of the different DNA's into the oocytes and for cytoplasmic injection of the mRNA encoding human Aquaporin-1 channels into the oocytes, the Roboocyte automated injection and recording system was used. (Human Aquaporine 1 cDNA cloned in expressing vector pGEM-T were purchased from Sino Biological Inc. Transcription to AQP1 mRNA was performed by an Ecocyte cooperation partner lab.) The mRNA injection volume was in the range 20-50 nl at a mRNA concentration of 100 ng/μl. After two to three days of incubation in Barth's solution supplemented with Gentamycin, water uptake of the Xenopus Oocytes through AQP1 channels was tested in a swelling assay using video microscopy. […] Normal frog ringer (NFR, NaCl 90 mM, KCl 2 mM, CaCl2 2 mM, MgCl2 1 mM, HEPES 5 mM, osmolarity 200 mOsm/1) was used as control solution and was prepared freshly on the day of the experiments. […]

[1] = tested on: Wheat seeds (Triticum aestivum); experiment: Wheat seed germination; assay type: in vivo; details: 0.5% w/w in USA I water
Experimental: Wheat seeds (Triticum aestivum) were germinated using USA I, USA II, and BP I waters described for Example 2. Germination rate using un-supplemented (control) water was compared to that with the same water variously supplemented with a cyclodextrin component, and/or a bioactive agent, as an active component of cellular hydration. For each condition, ten seeds were placed in continuous water contact in a Petri-type dish kept at 25 C in 12 hr light/dark cycles. Photometric images were recorded on days 1 to 6 after seeding. The percentage of seeds germinated was calculated and compared as a function of time and of the applied additive concentrations.
Water samples for seed germination were used alone with no additive, or containing cyclodextrins, or containing clathrate inclusion complexes of cyclodextrin with L-arginine or with nicotinamide (both obtained from Sigma Chemical Co.; St. Louis, MO), or with L-carnitine (from Lonza AG; Switzerland). […] Additive solutions were prepared fresh on the day of germination start.
Parent cyclodextrins α-cyclodextrin (ACD), β-cyclodextrin (BCD), and γ-cyclodextrin (GCD), were obtained from Wacker Chemie (Munich, Germany). The following derivatized cyclodextrins were obtained from Cyclolab Ltd. (Budapest, Hungary): hydroxypropylated-beta-cyclodextrin (DS-3)(HPBCD), carboxymethylated-β-cyclodextrin (DS-3.5)(CMBCD), 2-hydroxy-3-N,N,N-trimethylamino)propyl-β-cyclodextrin chloride (DS-3.6)(QABCD).
Germination kinetics in control and additive-modified water under identical conditions were quantified as the percentage of the seeds having a sprout. Each determination consisted of 100 seeds for each parameter. Results are reported in Table 5, below, and in FIGS. 11-13. • A) Cyclodextrin/L-Arg Inclusion Complex Increases Seed Germination.

pH of test solutions = assay type: physicochemical; details: purified water
Experimental: (§1) 1:1 mol/mol stoichiometry complexes were prepared for the experiment. Nicotinic acid/alpha-CD complex was prepared by dissolving 11.22 g nicotinic acid and 98.63 g alpha-CD (89.66 g on dry basis) in 700 ml purified water. Nicotinamide/alpha-CD complex was prepared by dissolving 5.57 g nicotinamide and 49.3 g alpha-CD (44.4 g on dry basis) in 350 ml purified water and L-arginine/alpha-CD complex was prepared by dissolving 15.18 g L-arginine and 94.26 g alpha-CD (85.69 g on dry basis) in 700 ml purified water. Further, for all the three complexes, the liquid was frozen in dry ice bath and lyophilized. The dry lyophilizate was ground and sieved.
(§2) Clarity, pH, conductivity, density, viscosity, turbidity, surface tension and osmolality were determined in solutions prepared with purified water. […]

[2] = Density measurements of test solutions; assay type: physicochemical; details: Tap water
Experimental: The current study further manifests the density measurements in a cyclodextrin concentration dependent manner.
Water samples used were bottled water and tap water; wherein the tap water comprises the following impurities and properties: Free active chlorine (0.18 mg/1), Chloride (24 mg/1), Iron (6 μg/1), Manganese (2 μg/1), Nitrate (9 mg/1), Nitrite (<0.03 mg/1), Ammonium (<0.04 mg/1), Hardness of water (122 mg/l CaO), Conductivity (442 μS/cm) and pH 8. Purified water was produced by removal of dissolved ions by Merck/Millipore Synergy® Water Purification System at Cyclolab. The water quality produced Type 1 water (18.2 MΩ·cm at 25° C. ultrapure water) from pretreated water.
as §1, §2
However, it may not be established exactly which ionic species (Mg2+, Ca2+, Na+) causes this perturbation.

water permeation of human-aquaporin-expressed oocytes (human aquaporin 1 (AQP1)): highest water permeation | pH (pH of test solutions; 0.05%): 6.20 | pH (pH of test solutions; 0.10%): 6.36 | pH (pH of test solutions; 1.00%): 6.55 | pH (pH of test solutions; 2.00%): 6.70 | Density (at 22 C.) ([2]; 0.05%): 0.9992 ± 0.007 g/cm³ | Density (at 22 C.) ([2]; 0.10%): 0.9994 ± 0.004 g/cm³ | Density (at 22 C.) ([2]; 1.00%): 1.002 ± 0.007 g/cm³ | Density (at 22 C.) ([2]; 2.00%): 1.009 ± 0.005 g/cm³
Compound: OC[C@H]1O[C@@H]2O[C@H]3[C@H](O)[C@@H](O)[C@@H](O[C@H]4[C@H](O)[C@@H](O)[C@@H](O[C@H]5[C@H](O)[C@@H](O)[C@@H](O[C@H]6[C@H](O)[C@@H](O)[C@@H](O[C@H]7[C@H](O)[C@@H](O)[C@@H](O[C@H]1[C@H](O)[C@H]2O)O[C@@H]7CO)O[C@@H]6CO)O[C@@H]5CO)O[C@@H]4CO)O[C@@H]3CO [Alpha Cyclodextrin, α-cyclodextrin]
wheat seed germination, percentage of the seeds having a sprout ([1]; day 0): 0% | wheat seed germination, percentage of the seeds having a sprout ([1]; day 1): 11% | wheat seed germination, percentage of the seeds having a sprout ([1]; day 2): 18% | wheat seed germination, percentage of the seeds having a sprout ([1]; day 3): 68% | wheat seed germination, percentage of the seeds having a sprout ([1]; day 4): 92%
